Values quoted from earlier work, collected in patent US7374751B1, “QS-21 and IL-12 as an adjuvant combination” (Wyeth Holdings Corporation, priority 2001, dated 2008).

Settings: clinical data, F/QS-21 formulation, immediately after injection

Substance: QS-21
- local acute toxicity: associated with local acute toxicity immediately after injection
